Consider one compound from US20250043349A1, “DEORPHANIZING ODORS USING SINGLE CELL SEQUENCING” (PRESIDENT AND FELLOWS OF HARVARD COLLEGE, priority 2021, published 2025).

The subject of experiment [1] is OSN subtypes (odorant receptors, ORs). Description: Act-Seq: scSeq of olfactory epithelium after two-hour odor exposure (IEG expression, activated ORs, activation score). It is filed as in vivo, mouse. Here is the method:
Act-Seq (Wu et al., 2017) was performed following odor exposure to quantify odor-evoked responses in each OSN subtype (defined by their expressed OR) across the entire OR repertoire. Mice were habituated to a reversed light cycle for at least for 1 week before odor exposure, transferred to a new disposable cage with regular bedding/food and kept overnight in a satellite animal facility. On the experimental day, each mouse was first transferred to a new empty disposable cage during the dark cycle and habituated for 20 minutes. Empty cages were used to avoid any activation by odorants present within the environments in which the mice were housed. Odors were added to a piece of filter paper (100 μL of odorant) in a 35 mm petri dish and a cotton ball (200 μL of odorant) and placed in each cage. After 2 hours, mice were euthanized, and dissociation was performed as described below. Odors used in this study were as follows. Dipropylene glycol (DPG, control solvent), and 10% of acetophenone, octanal, 2-hydroxy acetophenone, 4-methyl acetophenone, and methyl salicylate. As a control, mice were exposed to DPG alone for 30 min. This control condition was used to account for any drift in transcriptomes during the overnight housing and habituation periods prior to odor exposure and designed to capture the transcriptome in the state it would have been in the odor-exposed animals prior to odor exposure. […] Act-Seq was also performed using lower concentrations of acetophenone (1.0, 0.1, 0.01%) and 2-hydroxy acetophenone (0.1%, 0.01%). All odor dilutions were made with DPG, and all odors and DPG were obtained from Sigma. To assess the persistence of any transcriptional changes observed as a result of odor exposure, a cohort of mice was exposed to acetophenone or DPG for 2 hours, transferred to new clean regular home cages, and subjected to scSeq after an additional 22 hours.
The main olfactory epithelium was dissected in Earle's Balanced Salt Solution (EBSS, pre-treated with carbogen for at least 5 minutes before each use, Worthington), then transferred to a round-bottomed glass dish containing 750 μL of papain solution (one vial of Papain (Worthington) dissolved in 5 mL of EBSS and then equilibrated 10 minutes at 37° C.) and 100 μL of DNase solution (one vial of DNase-I (Worthington) dissolved in 500 μL of EBSS). Bone was removed from the epithelium under a dissecting microscope and the resulting epithelial tissue was placed in a 5 mL tube (Becton Dickinson) with an additional 1.75 mL of Papain solution and 200 μL of DNase-I solution and rocked gently for-60 minutes at 37° C. The tissue was then gently triturated with a 5 mL pipette 10-15 times, passed through a 40 μm cell strainer (Becton Dickinson), and washed with 1 mL of Hibernate-A medium containing 10% Fetal Bovine Serum (FBS. GIBCO). Filtered cells were transferred to a new 5 mL tube and centrifuged 5 minutes at 300×g. The supernatant was decanted, the cells were washed once with 4 mL Hibernate-A containing 10% FBS and resuspended in 1 mL Hibernate-A containing 0.2% FBS. Importantly, each of the solutions above contained transcriptional inhibitors (5 μg/mL of Actinomycin D, 10 μg/mL of Anisomycin and 10 μM of Triptolide, all obtained from Sigma) for all experiments, especially the Act-Seq experiments, except where noted.
OSN subtypes that were responsive to odorants were identified via a two-step process. First, individual OSNs (as defined by the expressed OR) were determined as activated based on their mean z-scored immediate early genes (IEG) expression. A set of 10 IEGs were used (Btg2, Egr1, Fos, Fosb, Gm13889, Junb, Nr4a1, Nr4a2, Pcdh10, and Srxn1). […] The set of 10 IEGs was used since even though all of the IEGs were specific to acute activation by odors, they were still only detected in a minority of cells due to the sparse nature of scSeq. […]

The subject of experiment [2] is acetophenone-responsive OSN subtypes. The experiment can be described thus: Environment switch followed by Act-Seq. Format: in vivo, mouse. The conditions noted are these: 2 weeks after switch from home cage to new odor environment. As to the method:
To examine environment-dependent changes in gene expression and their effects on odor-evoked responses. Act-Seq was performed 2 weeks after environment switches. Adult mice (6-12 weeks old) were group-housed in the regular home-cage environment for at least one week before the transfer to their novel environments. Individual mice were transferred to a new disposable cage containing materials for a novel environment in the satellite animal facility. Two different novel environments were used, with each containing non-overlapping contents; Environment A (paper bedding, hay, dried flowers (such as marigold), peanuts, seeds (e.g., sunflower seeds, pumpkin seeds), puffed rice), and Environment B (garden soil, aspen shavings, coconut husks, dried fruits (e.g., berries, mango, pineapple), dried vegetables (e.g., green peas, corn, bell peppers), millet, fresh fruits (banana, apple, peach), corn flakes). Mice were singly-housed throughout the entire 2 weeks and were transferred to newly prepared environmental cages every 12 hours to minimize the contributions of any murine odors, which are likely the predominant odorants present within standard home-cage housing environments. After 2 weeks, individual mice were transferred to new empty disposable cages, and Act-Seq using acetophenone was performed as above.

The subject of a further experiment is OSN subtypes. The experiment can be described thus: Persistence of transcriptional changes: 2 h odor exposure, 22 h home cage, scSeq ES scores. It is filed as in vivo, mouse. The conditions noted are these: two-hour exposure, measured after 24 hours. As to the method: Act-Seq (Wu et al., 2017) was performed following odor exposure to quantify odor-evoked responses in each OSN subtype (defined by their expressed OR) across the entire OR repertoire. Mice were habituated to a reversed light cycle for at least for 1 week before odor exposure, transferred to a new disposable cage with regular bedding/food and kept overnight in a satellite animal facility. On the experimental day, each mouse was first transferred to a new empty disposable cage during the dark cycle and habituated for 20 minutes. Empty cages were used to avoid any activation by odorants present within the environments in which the mice were housed. Odors were added to a piece of filter paper (100 μL of odorant) in a 35 mm petri dish and a cotton ball (200 μL of odorant) and placed in each cage. After 2 hours, mice were euthanized, and dissociation was performed as described below. Odors used in this study were as follows. […]
Changes in ES scores were evaluated by comparing the ES scores for each OSN subtype across experimental conditions. […] The changes in ES scores and z-scored functional gene expression across conditions for each OSN subtype are described. The relative ES score change for each OSN subtype was calculated by subtracting the mean across all OSN subtypes, to normalize for any global changes across conditions that were present across the population of OSNs.

In another experiment the test system is Olfr923. Conditions: Hu et al. 2020; Jiang et al. 2015; cited from earlier work.
Setting [3] is: acetophenone concentration series 0.01-10%.

On to `CC(=O)c1ccccc1` [acetophenone], for which the “percent of cells activated per OR on average, 5 partially activated ORs identified only by phospho-S6” value in experiment [1] (Act-Seq, ORs identified as acetophenone receptors) is reported as 43.8%. For the same compound, the “overlap between ORs activated by ACE and OCT, odds ratio” value in experiment [1] (Fisher's exact test, overlap at chance levels) stood at 1.42. In experiment [1] (setting [3]), the “activation scores of acetophenone-responsive OSNs with increasing concentrations” value is recorded as “tonically increased” and the “number of ORs activated with increasing concentrations” value is “tonically increased”. The “z-scored expression of 10 immediate early genes (IEGs) for each OSN subtype, odor vs control” value in experiment [1] (odor vs control (DPG) conditions) is given as “higher in the odor conditions”. In addition, the “acetophenone-driven OSN activation scores across odor environments” value in experiment [2] is reported as “altered acetophenone-driven OSN activation scores in an environment-dependent manner”. Besides, the “ES scores after transient exposure” value with OSN subtypes was “did not change ES scores after 24 hours”. Moreover, the “affinity for Olfr923” value in the experiment with Olfr923 was “high affinity”.
